# Experimental data taken from patent publication US20050118603A1, “Target detection system having a conformationally sensitive probe comprising a nucleic acid based signal transducer” (Ahram Biosystems Inc., priority 2002, published 2005).
# {Fluorescein} = fluorescein attached by a linker
# T1: PKC probe UP10-23PKC (SEQ ID NO: 165), peptide KRTLRRC conjugated to the UP10-23A pre-probe
# T1 sequence: KRTLRRC
# Legend:
# streptavidin [1] = molecular target: T2, streptavidin (Streptomyces avidinii, UniProt P22629); assay: Inhibition of binding of the receptor agent to the probe ligand using unimolecular probe UP6-23B (Example 18); conditions: 12.5 pmol streptavidin, 50 pmol probe; background subtracted
# T2 construct: purchased Pierce (IL, USA)
# T2 sequence (P22629 25-183): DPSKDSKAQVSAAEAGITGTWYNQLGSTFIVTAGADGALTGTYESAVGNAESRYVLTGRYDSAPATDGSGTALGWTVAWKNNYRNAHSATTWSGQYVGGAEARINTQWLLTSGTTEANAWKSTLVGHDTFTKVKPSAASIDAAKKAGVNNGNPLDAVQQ
# Method: Assay solutions for the inhibition test were prepared as follows. In each well of a 96 well PCR plate, 50 μL of 10 mM Tris, pH 8.5, 50 mM KCl, 2.5 mM MgCl2 containing 12.5 pmol of streptavidin and different amount of an inhibitor (biotin) was introduced and incubated for about 30 min at room temperature. About 50 pmol of the probe UP6-23B (SEQ ID NO: 141) was then added to each well and incubated for about 30 min at 60° C. before the fluorescence measurement.
# [2] = tested on: T1, PKC probe UP10-23PKC (SEQ ID NO: 165), peptide KRTLRRC conjugated to the UP10-23A pre-probe
# streptavidin [3] = molecular target: T2, streptavidin; assay: Unimolecular probe assay for streptavidin analysed by non-denaturing electrophoresis (Example 3); type: binding; conditions: in the presence of streptavidin; incubated in ice for an hour
# Excerpt: Two unimolecular affinity probes, UP1-34B (SEQ ID NO: 127) and UP2-6B/36B (SEQ ID NO: 128), having biotin as a probe ligand were used to detect a receptor agent, streptavidin (SA). The unimolecular affinity probe UP1 is depicted schematically in FIG. 18. UP1 has a biotin-coupled thymidine at the 34th position, and UP2 has two biotin-coupled thyrnidines at the 6th and 36th positions (see FIG. 23A for the structure of the biotin-coupled thymidine). Each unimolecular probe has an interactive label pair consisting of a fluorescer, fluorescein, and a quencher, DABCYL (4-(4′-dimethylaminophenylazo)benzoic acid), which are covalently linked to the 5′ and the 3′ terminus by a linker, respectively. The structures of the fluorescein and DABCYL with the linker are shown in FIGS. 23B and 23D, respectively. […] This causes decrease of the fluorescence intensity from the probe compared to the dissociated conformation in which the stem duplex is dissociated and thus the fluorescer moiety is located distal from the quencher moiety. […]
# Assay solutions were prepared according to the compositions summarized in Table 6, incubated in ice for an hour, and analyzed by electrophoresis. […] Dissociation of the stem duplexes due to the destabilization effect caused by the binding of the receptor agent is manifested by the increased fluorescence. […]
# streptavidin [4] = molecular target: T2, streptavidin; assay: Receptor-binding assay, temperature dependence of fluorescence signal of unimolecular probes (Examples 11-17); conditions: for relative increase of the fluorescence intensity (¼ molar equivalent of streptavidin divided by that without streptavidin): 25° C., 50 pmol probe
# Method: In order to perform receptor-binding assay, about 50 pmol of each unimolecular probe was mixed with 0, ⅛, and ¼ molar equivalent of streptavidin (0, 6.25, 12.5 pmol, respectively) in 50 μL of pH 8.5 10 mM Tris containing 50 mM KCl, […] well of a 96 well PCR plate (Bio-Rad, CA, USA). Note that ¼ molar equivalent of streptavidine corresponds to 1 molar equivalent of the biotin binding site in streptavidin with respect to the amount of the unmolecular probe used because streptavidin has 4 biotin binding sites. The assay solutions were then incubated for about 30 min at 60° C. The temperature dependence of the fluorescence signal from each well was measured with an iCycler iQ real time PCR machine purchased from Bio-Rad (CA, USA) using the melting profile protocol.
# The assay solutions for the unimolecular probes (50 pmol of each probe with 0, ⅛, and ¼ molar equivalent of streptavidin) were prepared in a 96 well PCR plates by the same procedure described in Example 11. As in Example 11, the temperature dependence of the fluorescence signal was measured with an iCycler iQ real time PCR machine.
# (§1) Again, the assay solutions for the above unimolecular probes (50 pmol of each probe with 0, ⅛, and ¼ molar equivalent of streptavidin) were prepared in a 96 well PCR plates by the same procedure described in Example 11, and the temperature dependence of the fluorescence signal was measured with an iCycler iQ real time PCR machine.
# as §1, with “above two” for “above”, “0” for “0, ⅛,”
# Assay solutions for the above unimolecular probe (50 pmol of each probe with 0 and ¼ molar equivalent of streptavidin) were prepared in a 96 well PCR plates by the same procedure described in Example 11, and the temperature dependence of the fluorescence signal was measured.
# Assay solutions for the above unimolecular probe (50 pmol of each probe with 0 and ¼ molar equivalent of streptavidin with total volume including the buffer solution being 50 μL) were prepared in a 96 well PCR plates using the following four buffer solutions: pH 6.0 10 mM MES containing 50 mM KCl, 2.5 mM MgCl2; pH 7.0 10 mM Tris containing 50 mM KCl, 2.5 mM MgCl2; pH 8.0 10 mM Tris containing 50 mM KCl, 2.5 mM MgCl2; and pH 9.0 10 mM Tris containing 50 mM KCl, […] The temperature dependence of the fluorescence signal from each well was measured with an iCycler iQ real time PCR machine.
# streptavidin [5] = molecular target: T2, streptavidin; assay: Immobilized trimolecular affinity probe assay for detecting streptavidin (Example 9); type: binding; conditions: upon addition of streptavidin, depending on amount added; CM3* fluorescence at 535 nm
# Excerpt: Two immobilized trimolecular affinity probes having a probe ligand (biotin) conjugated to the first complement sequence were used to detect streptavidin. One of the trimolecular probes used in this example is depicted schematically in FIG. 15. The first probe consists of an object oligonucleotide OB1-1B (SEQ ID NO: 135) comprising first and second object sequences, a first complement sequence CM2-4B (SEQ ID NO: 136) having a probe ligand, and a second complement sequence CM3* (SEQ ID NO: 131). The second probe consists of an object oligonucleotide OB1-1B (SEQ ID NO: 135), a first complement sequence CM1-4B (SEQ ID NO: 133) having a probe ligand, and a second complement sequence CM3* (SEQ ID NO: 131). The object oligonucleotide OB1-1B has a biotin covalently linked to the first nucleotide, adenosine in the 5′ end that is used to immobilize the object sequence (see FIG. 23E for the structure of the biotin-coupled abasic nucleotide). The second complement oligonucleotide CM3* has fluorescein as a fluorescent label at the 5′ terminal.
# The object oligonucleotide having a biotin residue in the 5′ terminal was immobilized to microwell plate wells coated with streptavidin. […] Fluorescence from the second complement oligonucleotide CM3* from each well was then measured at 535 nm using a microwell plate reader (GENios, TECAN, USA).
# [6] = pH 6.0, 7.0, 8.0, 9.0, without and with streptavidin
molecule,measurement,setting,value
O=C(O)CCCC[C@@H]1SC[C@@H]2NC(=O)N[C@@H]21 [biotin],fluorescence intensity of UP6-23B as a function of inhibitor concentration,streptavidin [1],decreases with increasing inhibitor concentration
PKC (Protein Kinase C),fluorescence signal of the PKC probe after the kinase reaction and addition of anti-phosphothreonine antibody,[2],a substantial increase of the fulorescence signal with respect to that measured with un-reacted PKC probe is observed in the absence of the inhibitor
"UP1-34B: unimolecular affinity probe (SEQ ID NO: 127), biotin-thymidine at 34th position, fluorescein/DABCYL, 6 bp stem (GCAGCCTAGGAAACACCAAAGATGATATTTGGCTGC; listed as DNA, chemistry not fully specified)",fluorescence in the high mass region of the gel,streptavidin [3],strongly enhanced fluorescence
same,melting temperature higher than that of the probe UP14-21B,streptavidin [4]; 6 bp stem duplex vs 4 bp stem duplex,about 20 °C
"UP2-6B/36B: unimolecular affinity probe (SEQ ID NO: 128), biotin-thymidines at 6th and 36th positions, fluorescein/DABCYL, 7 bp stem (GCAGCTCTAGGAAACACCAAAGATGATATTTGAGCTGC; listed as DNA, chemistry not fully specified)",fluorescence in the high mass region of the gel,streptavidin [3],strongly enhanced fluorescence
"UP6-23B: unimolecular probe (SEQ ID NO: 141), 15 nt loop, 5 bp stem, biotin, fluorescein/DABCYL (GCAGGATACTCATTACCATACCTGC; biotin, fluorescein and DABCYL, positions not given here, hairpin)",melting temperature,"streptavidin [4]; absence of the receptor agent, 0 mM MgCl2",about 38 °C
same,melting temperature,"streptavidin [4]; absence of the receptor agent, 5 mM MgCl2",about 58 °C
same,fluorescence intensity as a function of pH,streptavidin [4]; [6],increases dramatically depending on the pH
same,melting temperature as a function of pH,streptavidin [4]; [6],increases with pH
same,melting temperature,"streptavidin [4]; presence of the receptor agent (¼ molar equivalent of streptavidin), 0 mM MgCl2",about 33 °C
same,melting temperature,"streptavidin [4]; presence of the receptor agent (¼ molar equivalent of streptavidin), 5 mM MgCl2",about 45 °C
"UP10-13B: unimolecular probe (SEQ ID NO: 155), biotin in loop, 8th nucleotide from both ends of the loop region (GCAGCATCCTCATTACCCTAGCTGC; biotin in loop, hairpin stem-loop, further chemistry not given here)",response of the fluorescence signal of the unimolecular probe to addition of the receptor agent (conjugation position dependence),streptavidin [4]; ¼ molar equivalent of streptavidin vs. none,did not work properly as a unimolecular probe
"UP14-21B: unimolecular probe (SEQ ID NO: 149), 4 bp stem duplex, biotin, fluorescein/DABCYL (GCAGATACTCATTACCATACTGC; biotin, fluorescein and DABCYL, positions not given here, hairpin)","relative increase of the fluorescence signal, compared between the 4 bp and 6 bp stem probes",streptavidin [4]; upon addition of streptavidin,larger
"UP15-23B: unimolecular probe (SEQ ID NO: 150), stem and loop length as UP6-23B, different loop sequence with secondary 4 bp stem conformer (GCAGGATACTGCTTACCATACCTGC; biotin label, position not given here, hairpin)",relative increase of the fluorescence intensity (¼ molar equivalent of streptavidin divided by that without streptavidin),streptavidin [4],about 3
"UP16-23B: unimolecular probe (SEQ ID NO: 151), stem and loop length as UP6-23B, different loop sequence with secondary 4 bp stem conformer (GCAGGACTCTCATTACACTGCCTGC; listed as DNA, chemistry not fully specified)",relative increase of the fluorescence intensity (¼ molar equivalent of streptavidin divided by that without streptavidin),streptavidin [4],about 1.5
"second probe: immobilized trimolecular affinity probe of Example 9: OB1-1B, CM1-4B and CM3* (nucleic acid, chain 1: DNA, backbone not given here; chain 2: DNA, backbone not given here; chain 3: DNA, 5' {Fluorescein}, backbone not given here; OB1-1B biotin at 5' first nucleotide, CM1-4B biotin ligand, further chemistry not fully specified) chain 1: ATGGAAGTATATGGAAGTATATGGAAGTATTCGTGGGGTTTTGCAGTCGTAG chain 2: GACTGCAAAACCCC chain 3: CTACGACTGCAA","increase of fluorescence intensity, normalized to intensity in the absence of the receptor agent",streptavidin [5],2-3.5 fold
